For 22 molecules, Ki results are on record in US9957263B2, “Bromodomain inhibitors” (AbbVie Inc., priority 2013, dated 2018).

One assay has as its target BRD4 (BDI_K57-E168) (Homo sapiens (Human), UniProt O60885). In words: TR-FRET bromodomain binding assay, BRD4 first bromodomain. To be noted: His-tagged BD1, Alexa647-labeled probe 100 nM. The procedure, abridged: (§1)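 Affinity for each isolated His-tagged domain was measured as competition with a fluorescent Alexa647 BET-inhibitor probe in a TR-FRET format at pH 6.0, 1 h room temperature incubation. Ki values were calculated from fitted IC50s, probe Kd and probe level (100 nM BDI, 30 nM BDII).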

A further assay concerns the target BRD4 (BDII_E352-M457) (Homo sapiens (Human), UniProt O60885). In words: TR-FRET bromodomain binding assay, BRD4 second bromodomain. The conditions noted are these: His-tagged BD2, Alexa647-labeled probe 30 nM. The procedure, abridged: as §1

On to `Cn1cc(-c2cc(S(C)(=O)=O)ccc2Oc2ccc(F)cc2F)c2cc(CN3CCN(c4ccccn4)CC3)[nH]c2c1=O` [Example 132, 4-[2-(2,4-difluorophenoxy)-5-(methylsulfonyl)phenyl]-6-methyl-2-{[4-(pyridin-2-yl)piperazin-1-yl]methyl}-1,6-dihydro-7H-pyrrolo[2,3-c]pyridin-7-one], for which the results for the Ki on BRD4 (BDI_K57-E168) and on BRD4 (BDII_E352-M457) were 26.9 nM and 128 nM, respectively.

Take `CCNC(=O)c1cc2c(-c3cc(S(=O)(=O)CC)ccc3Oc3c(C)cccc3NCC3CCOC3)cn(C)c(=O)c2[nH]1` (centres unmarked) [Example 133, N-ethyl-4-[5-(ethylsulfonyl)-2-{2-methyl-6-[(tetrahydrofuran-3-ylmethyl)amino]phenoxy}phenyl]-6-methyl-7-oxo-6,7-dihydro-1H-pyrrolo[2,3-c]pyridine-2-carboxamide]: the Ki on BRD4 (BDI_K57-E168) is 2130 nM; at BRD4 (BDII_E352-M457), 20.3 nM.

On to `CCNC(=O)/C=C/c1cc2c(-c3cc(S(=O)(=O)CC)ccc3Oc3c(C)cccc3C)cn(C)c(=O)c2[nH]1` [Example 134, (2E)-3-{4-[2-(2,6-dimethylphenoxy)-5-(ethylsulfonyl)phenyl]-6-methyl-7-oxo-6,7-dihydro-1H-pyrrolo[2,3-c]pyridin-2-yl}-N-ethylprop-2-enamide], for which the inhibitory constant (Ki) on BRD4 (BDI_K57-E168) amounted to 23.4 nM; on BRD4 (BDII_E352-M457), 1.62 nM.

For the molecule `Cc1cccc(C)c1Oc1ccc(S(C)(=O)=O)cc1-c1cn(C)c(=O)c2[nH]c(-c3nc(C4CC4)no3)cc12` [Example 135, 2-(3-cyclopropyl-1,2,4-oxadiazol-5-yl)-4-[2-(2,6-dimethylphenoxy)-5-(methylsulfonyl)phenyl]-6-methyl-1,6-dihydro-7H-pyrrolo[2,3-c]pyridin-7-one], the Ki was determined as 54.9 nM at BRD4 (BDI_K57-E168) and 23.1 nM at BRD4 (BDII_E352-M457).

For `Cc1cccc(C)c1Oc1ccc(S(C)(=O)=O)cc1-c1cn(C)c(=O)c2[nH]c(-c3nc(-c4cccnc4)no3)cc12` [Example 138, 4-[2-(2,6-dimethylphenoxy)-5-(methylsulfonyl)phenyl]-6-methyl-2-[3-(pyridin-3-yl)-1,2,4-oxadiazol-5-yl]-1,6-dihydro-7H-pyrrolo[2,3-c]pyridin-7-one], the Ki at BRD4 (BDI_K57-E168) worked out at 88.5 nM; at BRD4 (BDII_E352-M457) it was 7.38 nM.

Turning to `CCNC(=O)c1cc2c(-c3cc(S(=O)(=O)CC)ccc3Oc3c(C)cccc3Cn3cccn3)cn(C)c(=O)c2[nH]1` [Example 145, N-ethyl-4-{5-(ethylsulfonyl)-2-[2-methyl-6-(1H-pyrazol-1-ylmethyl)phenoxy]phenyl}-6-methyl-7-oxo-6,7-dihydro-1H-pyrrolo[2,3-c]pyridine-2-carboxamide], the Ki is 807 nM on BRD4 (BDI_K57-E168) and 8.7 nM at BRD4 (BDII_E352-M457).

As to `CCNC(=O)c1cc2c(-c3cc(S(=O)(=O)CC)ccc3Oc3c(C)cccc3CN3CCOCC3)cn(C)c(=O)c2[nH]1` [Example 146, N-ethyl-4-{5-(ethylsulfonyl)-2-[2-methyl-6-(morpholin-4-ylmethyl)phenoxy]phenyl}-6-methyl-7-oxo-6,7-dihydro-1H-pyrrolo[2,3-c]pyridine-2-carboxamide], the Ki was 3280 nM at BRD4 (BDI_K57-E168) and 50.1 nM on BRD4 (BDII_E352-M457).

Consider `CCNC(=O)c1cc2c(-c3cc(S(=O)(=O)CC)ccc3Oc3c(C)cccc3CN3CCCCC3)cn(C)c(=O)c2[nH]1` [Example 147, N-ethyl-4-{5-(ethylsulfonyl)-2-[2-methyl-6-(piperidin-1-ylmethyl)phenoxy]phenyl}-6-methyl-7-oxo-6,7-dihydro-1H-pyrrolo[2,3-c]pyridine-2-carboxamide], for which the Ki was found to be 761 nM on BRD4 (BDI_K57-E168) and 57.5 nM on BRD4 (BDII_E352-M457).

For the molecule `CCNC(=O)c1cc2c(-c3cc(S(=O)(=O)CC)ccc3Oc3c(C)cccc3CCc3ccccc3)cn(C)c(=O)c2[nH]1` [Example 148, N-ethyl-4-{5-(ethylsulfonyl)-2-[2-methyl-6-(2-phenylethyl)phenoxy]phenyl}-6-methyl-7-oxo-6,7-dihydro-1H-pyrrolo[2,3-c]pyridine-2-carboxamide], the Ki on BRD4 (BDI_K57-E168) was 5720 nM; at BRD4 (BDII_E352-M457), 7.02 nM.

`CCS(=O)(=O)c1ccc(OC2CCCCC2)c(-c2cn(C)c(=O)c3[nH]c(-c4cnn(C5CCNCC5)c4)cc23)c1` [Example 149, 4-[2-(cyclohexyloxy)-5-(ethylsulfonyl)phenyl]-6-methyl-2-[1-(piperidin-4-yl)-1H-pyrazol-4-yl]-1,6-dihydro-7H-pyrrolo[2,3-c]pyridin-7-one]: the Ki at BRD4 (BDI_K57-E168) stood at 2.81 nM; on BRD4 (BDII_E352-M457), 0.669 nM.

As to `CCNC(=O)c1cc2c(-c3cc(S(=O)(=O)CC)ccc3Oc3c(C)cccc3Cn3ccnc3)cn(C)c(=O)c2[nH]1` [Example 150, N-ethyl-4-{5-(ethylsulfonyl)-2-[2-(1H-imidazol-1-ylmethyl)-6-methylphenoxy]phenyl}-6-methyl-7-oxo-6,7-dihydro-1H-pyrrolo[2,3-c]pyridine-2-carboxamide], the values for the Ki at BRD4 (BDI_K57-E168) and at BRD4 (BDII_E352-M457) were 2680 nM and 73.9 nM, respectively.

In the case of `CCNC(=O)c1cc2c(-c3cc(S(=O)(=O)CC)ccc3Oc3c(C)cccc3CN3CCCC3=O)cn(C)c(=O)c2[nH]1` [Example 151, N-ethyl-4-[5-(ethylsulfonyl)-2-{2-methyl-6-[(2-oxopyrrolidin-1-yl)methyl]phenoxy}phenyl]-6-methyl-7-oxo-6,7-dihydro-1H-pyrrolo[2,3-c]pyridine-2-carboxamide], the Ki is 813 nM at BRD4 (BDI_K57-E168) and 9.95 nM at BRD4 (BDII_E352-M457).

With `CCNC(=O)c1cc2c(-c3cc(S(=O)(=O)CC)ccc3Oc3c(C)cccc3CN3CCCS3(=O)=O)cn(C)c(=O)c2[nH]1` [Example 152, 4-[2-{2-[(1,1-dioxido-1,2-thiazolidin-2-yl)methyl]-6-methylphenoxy}-5-(ethylsulfonyl)phenyl]-N-ethyl-6-methyl-7-oxo-6,7-dihydro-1H-pyrrolo[2,3-c]pyridine-2-carboxamide], the Ki was 2080 nM on BRD4 (BDI_K57-E168) and 36 nM at BRD4 (BDII_E352-M457).

Regarding `CCNC(=O)c1cc2c(-c3ccc(C(=O)N(CC(=O)NC)Cc4ccccn4)cc3Oc3c(C)cccc3C)cn(C)c(=O)c2[nH]1` [Example 153, 4-[2-(2,6-dimethylphenoxy)-4-{[2-(methylamino)-2-oxoethyl](pyridin-2-ylmethyl)carbamoyl}phenyl]-N-ethyl-6-methyl-7-oxo-6,7-dihydro-1H-pyrrolo[2,3-c]pyridine-2-carboxamide], the Ki on BRD4 (BDI_K57-E168) worked out at 1040 nM; at BRD4 (BDII_E352-M457) it was 2.61 nM.

Regarding `CCNC(=O)c1cc2c(-c3ccc(C(=O)N(C)C4CCN(OC(=O)CC)CC4)cc3Oc3c(C)cccc3C)cn(C)c(=O)c2[nH]1` [Example 154, 4-[2-(2,6-dimethylphenoxy)-4-{methyl[1-(propanoyloxy)piperidin-4-yl]carbamoyl}phenyl]-N-ethyl-6-methyl-7-oxo-6,7-dihydro-1H-pyrrolo[2,3-c]pyridine-2-carboxamide], the figures for the Ki on BRD4 (BDI_K57-E168) and on BRD4 (BDII_E352-M457) were 1040 nM and 13.7 nM, respectively.

As to `CN(C)C(=O)C1(N2CCCC2=O)CCN(Cc2cc3c(-c4cc(S(C)(=O)=O)ccc4Oc4ccc(F)cc4F)cn(C)c(=O)c3[nH]2)CC1` [Example 155, 1-({4-[2-(2,4-difluorophenoxy)-5-(methylsulfonyl)phenyl]-6-methyl-7-oxo-6,7-dihydro-1H-pyrrolo[2,3-c]pyridin-2-yl}methyl)-N,N-dimethyl-4-(2-oxopyrrolidin-1-yl)piperidine-4-carboxamide], the figures for the Ki at BRD4 (BDI_K57-E168) and on BRD4 (BDII_E352-M457) were 23.7 nM and 364 nM, respectively.

Turning to `Cn1cc(-c2cc(S(C)(=O)=O)ccc2Oc2ccc(F)cc2F)c2cc(CN3CC(n4cncn4)C3)[nH]c2c1=O` [Example 156, 4-[2-(2,4-difluorophenoxy)-5-(methylsulfonyl)phenyl]-6-methyl-2-{[3-(1H-1,2,4-triazol-1-yl)azetidin-1-yl]methyl}-1,6-dihydro-7H-pyrrolo[2,3-c]pyridin-7-one], the Ki at BRD4 (BDI_K57-E168) was determined as 26.8 nM; on BRD4 (BDII_E352-M457), 42.3 nM.

As to `CCNC(=O)c1cc2c(-c3cc(S(=O)(=O)CC)ccc3Oc3c(C)cccc3CN3CCC3=O)cn(C)c(=O)c2[nH]1` [Example 157, N-ethyl-4-[5-(ethylsulfonyl)-2-{2-methyl-6-[(2-oxoazetidin-1-yl)methyl]phenoxy}phenyl]-6-methyl-7-oxo-6,7-dihydro-1H-pyrrolo[2,3-c]pyridine-2-carboxamide], the Ki on BRD4 (BDI_K57-E168) was 387 nM; at BRD4 (BDII_E352-M457), 16.9 nM.

In the case of `CCNC(=O)c1cc2c(-c3cc(S(=O)(=O)CC)ccc3Oc3c(C)cccc3Cn3ccccc3=O)cn(C)c(=O)c2[nH]1` [Example 158, N-ethyl-4-[5-(ethylsulfonyl)-2-{2-methyl-6-[(2-oxopyridin-1(2H)-yl)methyl]phenoxy}phenyl]-6-methyl-7-oxo-6,7-dihydro-1H-pyrrolo[2,3-c]pyridine-2-carboxamide], the values for the Ki on BRD4 (BDI_K57-E168) and at BRD4 (BDII_E352-M457) were 883 nM and 28.5 nM, respectively.

For `Cn1cc(-c2cc(S(C)(=O)=O)ccc2Oc2ccc(F)cc2F)c2cc(CNCCC(N)=O)[nH]c2c1=O` [Example 159, 3-[({4-[2-(2,4-difluorophenoxy)-5-(methylsulfonyl)phenyl]-6-methyl-7-oxo-6,7-dihydro-1H-pyrrolo[2,3-c]pyridin-2-yl}methyl)amino]propanamide], the Ki is 230 nM on BRD4 (BDI_K57-E168) and 156 nM at BRD4 (BDII_E352-M457).

For the molecule `CCNC(=O)c1cc2c(-c3ccc(C(=O)N(CCC(=O)OC)c4ccccc4)cc3Oc3c(C)cccc3C)cn(C)c(=O)c2[nH]1` [Example 160, methyl 3-[{3-(2,6-dimethylphenoxy)-4-[2-(ethylcarbamoyl)-6-methyl-7-oxo-6,7-dihydro-1H-pyrrolo[2,3-c]pyridin-4-yl]benzoyl}(phenyl)amino]propanoate], the Ki on BRD4 (BDI_K57-E168) is 1710 nM; on BRD4 (BDII_E352-M457), 9.99 nM.

For `CCNC(=O)c1cc2c(-c3ccc(C(=O)N(CCCN4CCOCC4)Cc4ccccc4)cc3Oc3c(C)cccc3C)cn(C)c(=O)c2[nH]1` [Example 161, 4-[4-{benzyl[3-(morpholin-4-yl)propyl]carbamoyl}-2-(2,6-dimethylphenoxy)phenyl]-N-ethyl-6-methyl-7-oxo-6,7-dihydro-1H-pyrrolo[2,3-c]pyridine-2-carboxamide], the Ki came out at 1050 nM at BRD4 (BDI_K57-E168) and 3.16 nM at BRD4 (BDII_E352-M457).
